Experimental data as given in patent publication US20160310512A1, “THERAPY REGIMEN FOR TREATING SEVERE ACNE RELATED DISEASES” (GALDERMA RESEARCH & DEVELOPMENT, priority 2013, published 2016).

What was measured:
[1] = when combined with BPO; unlike tretinoin; cited from earlier work
[2] = system: severe acne vulgaris; assay: Same clinical study: composite overall success (efficacy + safety); format: in vivo, human
Description: To achieve this objective, a primary outcome, overall success, was defined as a composite endpoint including efficacy and safety measurements.
Overall success was deemed to be reached when the 2 following criteria were fulfilled:
(§1) Reduction of at least 75% of number of nodules at the end of treatment

[3] = system: P. acnes; assay: P. acnes presence by UV fluorescence photography (Visia system), subset of 40 subjects; format: in vivo
Method: Atrophic acne scar counts were conducted on half the face and the presence of P. acnes were also assessed by UV fluorescence photography (Visia® system—Canfield Scientific, Inc.). […] As few centers were equipped with this system, this test was performed on a subset of only 40 subjects.

[4] = system: severe acne vulgaris; assay: Multi-center randomized investigator-blind clinical study, 20 weeks: efficacy on acne lesions, nodules and atrophic scars; format: in vivo, human; conditions: for Atrophic acne scar count (Mean ± SD): half face
Method: This example was the first study evaluating the concomitant use of these treatments.
Isotretinoin is administrated under capsule form (of 40 mg and/or 10 mg each). The quantity administrated was calculated according to patient weight and treatment duration in order to finally administrate a dosage of 0.5 mg/kg for the first 4 weeks of treatment and 1 mg/kg for the 16 remaining weeks.
This study was conducted as a multi-center, randomized, investigator-blind, controlled and parallel group trial. This non-inferiority study involved subjects of any race, aged 12 to 35 years inclusive with severe acne and meeting specific eligibility criteria.
Subjects were randomized at baseline and treated for 20 weeks with either Adapalene-BPO gel associated with oral doxycycline or its vehicle gel associated with oral Isotretinoin.
A total of 266 subjects were enrolled across 29 centres in Canada. Of which, 217 subjects were included in the analysis-per-protocol (PP) populations (all randomized subjects without any major protocol deviations) for primary endpoint analysis. All other endpoints were analysed with population-intent-to-treat (ITT) (all randomized subjects who were dispensed study medication) (N=266).
For efficacy variables, in order to evaluate the effect of major deviations or of data exclusions, the ITT population were analyzed at each visit using the last observation carried forward (LOCF) to impute missing values. If no post-baseline data was available, baseline was carried forward. […] The other missing values were not replaced (observed data).
as §1
Other secondary efficacy endpoints were the percent change from baseline visit in Total lesion counts, Inflammatory lesion counts, Nodule counts, and the total atrophic acne scar counts.

[5] = ITT Observed population, count (%)
[6] = APT, Very Bothered at least 1 Month + Persisting at least 2 Weeks + At least 1 episode
[7] = ITT observed, chelitis, xerosis, erythema, dry mouth, pruritus, epistaxis, conjunctivitis, eye irritation, dry eye
[8] = ITT observed, lip balm, moisturizer, cleanser, cosmetics not counted
[9] = ITT observed, phototoxicity, allergic skin/eczematous reaction, candida vaginitis
[10] = ITT observed, study termination at subject's request motivated by treatment concern

COc1ccc(-c2ccc3cc(C(=O)O)ccc3c2)cc1C12CC3CC(CC(C3)C1)C2 [Adapalene, 6-[3-(1-adamantyl)-4-methoxyphenyl]-2-naphtoic acid]
stability in the presence of light [1]: stable

CC1=C(/C=C/C(C)=C/C=C/C(C)=C\C(=O)O)C(C)(C)CCC1 [Vehicle + Isotretinoin, 13-cis-retinoic acid]
Overall success: Failure [2, 5]: 52 (41.6%) | Overall success: Success [2, 5]: 73 (58.4%) | Overall Success ([2]; PP population, 20 weeks): 65 (58.0%) patients (%) | Overall success: Failure ([2]; PP population, count (%)): 47 (42.0%) | composite endpoint (efficacy and safety), overall success ([2]; intent-to-treat population, p=0.125): 54.9% | composite endpoint (efficacy and safety), overall success ([2]; per-protocol population, p=0.014): 58% | P. acnes fluorescence, median percent change ([3]; week 2): +14.1% | P. acnes reduction (in words) ([3]; week 20): in favor of ISO | Clinically significant lab abnormality, Evt (APT): 6 n | Clinically significant lab abnormality, Subj. (APT): 4 (3.0%) n (%) | Related AE requiring a prescription of a concomitant medical treatment, Evt (APT): 34 n | Related AE requiring a prescription of a concomitant medical treatment, Subj. (APT): 27 (25.6%) n (%) | Related AEs deemed as safety failure, Subj. (APT): 45 (33.8%) n (%) | Related AEs leading to discontinuation, Evt (APT): 5 n | Related AEs leading to discontinuation, Subj. (APT): 4 (3.0%) n (%) | Related AEs, Evt (APT): 299 n | Related AEs, Subj. with at least one event (APT): 117 (88.0%) n (%) | Related serious AEs, Evt (APT): 1 n | Related serious AEs, Subj. (APT): 1 (0.8%) n (%) | Related severe AEs, Evt (APT): 5 n | Related severe AEs, Subj. (APT): 5 (3.8%) n (%) | subjects reporting at least 1 related AE (APT): 88% | subjects with related AEs deemed as a safety failure (AEs of special management concern) (APT): 33.8% | Other medically relevant related AEs, Evt [6]: 35 n | Other medically relevant related AEs, Subj. [6]: 23 (17.3%) n (%) | Related AEs deemed as safety failure, Evt (APT, each AE counted once): 73 n | Clinically significant lab abnormality, Event (ITT observed): 6 n | Clinically significant lab abnormality, Subject (ITT observed): 4 (3.2%) n, % | Inability to escalate to Iso 1 mg/kg/day, Event (ITT observed): 5 n | Inability to escalate to Iso 1 mg/kg/day, Subject (ITT observed): 5 (4.0%) n, % | Necessity of oral drug downward dose adjustment, Event (ITT observed): 2 n | Necessity of oral drug downward dose adjustment, Subject (ITT observed): 2 (1.6%) n, % | Related AE leading to discontinuation, Event (ITT observed): 5 n | Related AE leading to discontinuation, Subject (ITT observed): 4 (3.2%) n, % | Related SAE, Event (ITT observed): 1 n | Related SAE, Subject (ITT observed): 1 (0.8%) n, % | Related Severe AE, Event (ITT observed): 5 n | Related Severe AE, Subject (ITT observed): 5 (4.0%) n, % | Safety Failure, Event (ITT observed): 95 n | Safety Failure, Subject (ITT observed): 50 (40.0%) n, % | subjects with safety failure (ITT observed): 40.0% | Predefined related AE Very Bothered, at least 1 Month, Event [7]: 2 n | Predefined related AE Very Bothered, at least 1 Month, Subject [7]: 2 (1.6%) n, % | Related AE requiring a prescription of a concomitant medical treatment, Event [8]: 34 n | Related AE requiring a prescription of a concomitant medical treatment, Subject [8]: 27 (21.6%) n, % | Predefined related AE for at least 1 episode, Event [9]: 21 n | Predefined related AE for at least 1 episode, Subject [9]: 15 (12.0%) n, % | Subject's treatment concern, Event [10]: 2 n | Subject's treatment concern, Subject [10]: 2 (1.6%) n, % | Safety Success (absence of medically relevant events) (PP population, 20 weeks): 67 (59.8%) patients (%) | Efficacy failure (nodule reduction <75%), Event ([4]; ITT observed): 2 n | Efficacy failure (nodule reduction <75%), Subject ([4]; ITT observed): 2 (1.6%) n, % | Efficacy Success (nodule reduction >75%) ([4]; PP population, end of 20-week treatment): 110 (98.2%) patients (%) | Atrophic acne scar count (Mean ± SD) ([4]; W12-LOCF (ITT)): 16.7 ± 15.7 | Atrophic acne scar count (Mean ± SD) ([4]; W20-LOCF (ITT)): 16.1 ± 16.7 | Inflammatory lesions (Median) (not including nodules), % change ([4]; Week 20, ITT LOCF): −95% | Nodules (Mean), % change ([4]; Week 20, ITT LOCF): −96% | Total lesion counts (Median), % change ([4]; Week 20, ITT LOCF): −93% | acne lesion outcomes compared to Adapalene-BPO+Doxycycline (in words) ([4]; Week 20, most of the acne lesion outcomes): superior
